Source: ChEMBL document CHEMBL1149509, “Search of antitubercular activities in tetrahydroacridines: synthesis and biological evaluation” (Bioorg Med Chem Lett, 2006)
Converted amounts (≈) assume the structure as drawn.

How the values were obtained:
[1] = system: Mycobacterium tuberculosis; assay: Antitubercular activity against Mycobacterium tuberculosis H37Rv; format: functional
[2] = Partition coefficient, log P of the compound; format: physicochemical; settings: octanol/water
[3] = system: Mycobacterium tuberculosis; assay: Antitubercular activity against Mycobacterium tuberculosis H37Ra; format: functional

Row | SMILES | MIC [1] [µg/mL] | logP ([2]; read-out: LogP) | MIC [3] [µg/mL] | logP [2]
1 | c1ccc2c(NCCCCCNc3c4c(nc5ccccc35)CCCC4)c3c(nc2c1)CCCC3 | 12.5 (≈ 26.9 µM) | 7.15 | 25 (≈ 53.8 µM) | 
2 | Clc1ccc(Oc2c3c(nc4ccccc24)CCCC3)cc1 | > 12.5 | 5.81 | > 25 | 
3 | Clc1ccc(Oc2c3c(nc4ccccc24)CCCC3)c(Cl)c1 | > 12.5 | 6.37 | > 25 | 
4 | CCCCCCCCCCCCNc1c2c(nc3ccccc13)CCCC2 | 0.78 (≈ 2.13 µM) | 7.79 | 6.25 (≈ 17 µM) | 
5 | C=CCc1ccc(Oc2c3c(nc4ccccc24)CCCC3)c(OC)c1 | > 12.5 | 6.18 | 25 (≈ 72.4 µM) | 
6 | CCCCCCCCNc1c2c(nc3ccccc13)CCCC2 | 3.12 (≈ 10 µM) | 6.12 | 1.56 (≈ 5.02 µM) | 
7 | COc1ccc(Nc2c3c(nc4ccccc24)CCCC3)cc1 | > 12.5 | 5.05 | > 25 | 
8 | OCCNc1c2c(nc3ccccc13)CCCC2 | 12.5 (≈ 51.6 µM) | 2.69 | > 25 | 
9 | CCCCCCNc1c2c(nc3ccccc13)CCCC2 | 6.25 (≈ 22.1 µM) | 5.29 | 6.25 (≈ 22.1 µM) | 
10 | c1ccc(Sc2c3c(nc4ccccc24)CCCC3)cc1 | > 12.5 | 5.82 | > 25 | 
11 | c1ccc(CNc2c3c(nc4ccccc24)CCCC3)cc1 | > 12.5 | 4.94 | 25 (≈ 86.7 µM) | 
12 | Fc1ccc(Oc2c3c(nc4ccccc24)CCCC3)cc1 | > 12.5 | 5.41 | > 25 | 
13 | c1ccc2c(NCCCCCCCNc3c4c(nc5ccccc35)CCCC4)c3c(nc2c1)CCCC3 | 12.5 (≈ 25.4 µM) | 7.99 | 6.25 (≈ 12.7 µM) | 
14 | Cc1ccc(Oc2c3c(nc4ccccc24)CCCC3)cc1C | > 12.5 | 6.23 | > 25 | 
15 | c1ccc2c(NCCCCCCCCCCNc3c4c(nc5ccccc35)CCCC4)c3c(nc2c1)CCCC3 | 12.5 (≈ 23.4 µM) |  | 3.12 (≈ 5.83 µM) | 9.24
16 | c1ccc2c(N3CCOCC3)c3c(cc2c1)CCCC3 | 12.5 (≈ 46.8 µM) | 3.6 | > 25 | 
17 | Clc1cccc(CCNc2c3c(nc4ccccc24)CCCC3)c1 | > 12.5 | 5.78 | 25 (≈ 74.2 µM) | 
18 | CC[C@@H](CO)NCCN[C@@H](CC)CO [ETHAMBUTOL] | 3.25 (≈ 15.9 µM) |  |  | 
19 | NNC(=O)c1ccncc1 [ISONIAZID] | 0.65 (≈ 4.74 µM) |  |  | 
20 | CO[C@H]1/C=C/O[C@@]2(C)Oc3c(C)c(O)c4c(O)c(c(/C=N/N5CCN(C)CC5)c(O)c4c3C2=O)NC(=O)/C(C)=C\C=C\[C@H](C)[C@H](O)[C@@H](C)[C@@H](O)[C@@H](C)[C@H](OC(C)=O)[C@@H]1C [RIFAMPIN] | 0.75 (≈ 0.911 µM) |  |  | 
